Results published in the supplement of paper PMC8967900.

How the values were obtained:
Assay in all cases: selective drug sensitivity score (sDSS, relative to normal bone marrow) (sDSS (score)); higher = more potent and effective on the cell line relative to normal bone marrow cells
Details in all cases: 72 h
ALL-SIL = test system: ALL-SIL
KARPAS-45 = test system: KARPAS-45
ALL-PO = test system: ALL-PO
SEM cells = test system: SEM cells
MN-60 = test system: MN-60
TANOUE = test system: TANOUE
LC4-1 = test system: LC4-1
KASUMI-9 = test system: KASUMI-9
P12-ICHIKAWA = test system: P12-ICHIKAWA
MOLT-16 = test system: MOLT-16
DND-41 = test system: DND-41
KASUMI-10 = test system: KASUMI-10
REH = test system: REH
COG-LL-355h = test system: COG-LL-355h
HPB-ALL = test system: HPB-ALL
PF-382 = test system: PF-382
TMD5 = test system: TMD5
CCRF-HSB2 = test system: CCRF-HSB2
SUP-B15 = test system: SUP-B15
COG-LL-332h = test system: COG-LL-332h
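Further: ALL cell lines in 384-well plates, five doses spanning 10,000-fold, each plate scaled between vehicle and 100 µmol/L benzalkonium chloride controls, sDSS an adapted area-under-curve metric.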

| SMILES | selective drug sensitivity score (ALL-SIL) | selective drug sensitivity score (KARPAS-45) | selective drug sensitivity score (ALL-PO) | selective drug sensitivity score (SEM cells) | selective drug sensitivity score (MN-60) | selective drug sensitivity score (TANOUE) | selective drug sensitivity score (LC4-1) | selective drug sensitivity score (KASUMI-9) | selective drug sensitivity score (P12-ICHIKAWA) | selective drug sensitivity score (MOLT-16) | selective drug sensitivity score (DND-41) | selective drug sensitivity score (KASUMI-10) | selective drug sensitivity score (REH) | selective drug sensitivity score (COG-LL-355h) | selective drug sensitivity score (HPB-ALL) | selective drug sensitivity score (PF-382) | selective drug sensitivity score (TMD5) | selective drug sensitivity score (CCRF-HSB2) | selective drug sensitivity score (SUP-B15) | selective drug sensitivity score (COG-LL-332h) |
| --- | --- | --- | --- | --- | --- | --- | --- | --- | --- | --- | --- | --- | --- | --- | --- | --- | --- | --- | --- | --- |
| O=C(c1cc(Cc2n[nH]c(=O)c3ccccc23)ccc1F)N1CCN(C(=O)C2CC2)CC1 [Olaparib] (top concentration 10000 nM) | -0.02 | 0.38 | -0.12 | 5.18 | -2.42 | -3.42 | 2.68 | 4.98 | -0.82 | 9.08 | 1.28 | 2.88 | 1.48 | 3.38 | -1.32 | -0.52 | 4.48 | 3.98 | 13.1 | 4.98 |
| Nc1nc(F)nc2c1ncn2[C@@H]1O[C@H](CO)[C@@H](O)[C@@H]1O [Fludarabine] (top concentration 10000 nM) | 3 | -10.3 | 1.6 | 4 | -4.5 | -10.3 | 6 | 6 | -5.5 | 2.6 | 5.5 | -0.8 | -1.3 | 5.1 | 0.3 | -6.6 | -10.6 | 1.5 | 9.4 | 0.6 |
| Nc1ncn([C@H]2C[C@H](O)[C@@H](CO)O2)c(=O)n1 [Decitabine] (top concentration 10000 nM) | -3.06 | -6.06 | 4.54 | 1.74 | -5.86 | -6.06 | -0.06 | -0.16 | 1.14 | 5.94 | -4.66 | -3.06 | 3.94 | -0.96 | -0.66 | -1.16 | -5.56 | 1.14 | 16.5 | 4.34 |
| CNC(=O)CN1CCC(Oc2cc3c(Nc4cccc(Cl)c4F)ncnc3cc2OC)CC1 [Sapitinib] (top concentration 1000 nM) | 0 | 0 | 0 | 0 | 0 | 0 | 0 | 0 | 0 | 0 | 0 | 0 | 0 | 0 | 0 | 0 | 0 | 3.3 | 0 | 0 |
| Nc1ccn([C@@H]2O[C@H](CO)[C@@H](O)[C@@H]2O)c(=O)n1 [Cytarabine] (top concentration 10000 nM) | 15.1 | -7.7 | 8.6 | 15.9 | 1.3 | -8.9 | 21 | 22.7 | 24.5 | 22.5 | 16.3 | 1.6 | 21.8 | 4.9 | 2.7 | 19.1 | -10 | 28.7 | 27.7 | 25.5 |
| CC(C)Oc1ccc(C(=O)N[C@H](CNC(=O)CN(C)C)Cc2ccc(-c3cn4cccc([C@H](C)O)c4n3)cc2)cc1Cl (top concentration 10000 nM) | 12.8 | 7.48 | 6.88 | 8.88 | -1.62 | -9.32 | 8.28 | 10.3 | 7.28 | 20.1 | -2.62 | 6.88 | 12.1 | -2.62 | 8.18 | 6.68 | 5.18 | 11 | 14.8 | 16.5 |
| CCc1c2c(nc3ccc(O)cc13)-c1cc3c(c(=O)n1C2)COC(=O)[C@]3(O)CC [SN-38] (top concentration 10000 nM) | 27.3 | 3.98 | 19.5 | 25.4 | 7.28 | -5.52 | 27.1 | 23.5 | 26.5 | 28.2 | 25.5 | 18.9 | 27.2 | 14.7 | 11.2 | 24.8 | 18.3 | 28 | 26.9 | 27.6 |
| CCOC(=O)C1=CCCC[C@H]1S(=O)(=O)Nc1ccc(F)cc1Cl [Resatorvid] (top concentration 10000 nM) | 0 | 0 | 0 | 0 | 0 | 0 | 0 | 0 | 0 | 0 | 0 | 0 | 0 | 0 | 0 | 0 | 0 | 0 | 0 | 0 |
| CCn1c(-c2nonc2N)nc2cnc(Oc3cccc(NC(=O)c4ccc(OCCN5CCOCC5)cc4)c3)cc21 (top concentration 10000 nM) | 4.06 | 15.2 | -2.14 | 9.36 | -3.54 | -5.44 | 17 | 11.6 | 17.1 | 12.1 | 0.86 | -2.74 | 4.56 | -2.34 | -1.14 | 1.66 | 6.36 | 13.6 | 19.3 | 11 |
